Source: PMC9013689, “Development of reconstructed intestinal micronucleus cytome (RICyt) assay in 3D human gut model for genotoxicity assessment of orally ingested substances” (Archives of Toxicology, 2022)
Values joined by “and” are separate entries in the source; they are usually repeats but may differ in a detail not shown here. Equal values may be shown once. Where a name gives a salt, the structure may show the parent alone. Read-outs that look alike come from different tables or passages of the source.

Assays:
3D EpiIntestinal™ tissue [1] = test: Reconstructed intestine micronucleus cytome (RICyt) assay
Excerpt: EpiIntestinal™ tissue (SMI-200-FT v2.0) was purchased from MatTek Corporation® (Ashland, MA). The EpiIntestinal™ construct is a differentiated 3D tissue model that consists of intestinal villi and crypts topology resembling the normal human small intestine. […] The mature tissues are shipped sealed in 24-well agar-plugged plates to the designated laboratory (in this instance, Singapore). Upon receipt, the tissues are revived overnight in fresh SMI-100-MM before use in assays.
(§1) Test compound stock solutions were prepared in DMSO (D161802, Sigma Aldrich, St Louis, MO). For the 3D tissues, dilutions were made in complete culture media yielding ≤ 0.1% DMSO final concentration. Media containing 0.1% DMSO (i.e. without test article) were applied to tissues to serve as the vehicle control. All 3D tissues were treated apically every alternate day (from day 0–6) and daily (from day 7–9), while basolateral wells contain untreated culture media to support the tissue growth. TK6 cells were exposed for 24 h with the test materials prior to harvest.
(§2) 3D tissues were dissociated using human tumour dissociation kit (Miltenyl Biotec, Bergisch Gladbach, Germany), as per manufacturers’ instruction, with minor modifications. Individual 3D tissues cultured on microporous membranes were excised from the culture inserts and incubated for 15 min in cell recovery solution (Corning, Tewksbury, MA). The tissues were subsequently peeled off from the membrane with fine point forceps under stereo microscope (Leica Microsystems, Wetzlar, Germany). The peeled tissues were placed into gentleMACS C-tube (Miltenyi Biotech, Bergisch Gladbach, Germany) containing the enzyme mix described in the kit’s protocol. The tubes were then transferred into a gentleMACS octo dissociator with heater (Miltenyi Biotech, Bergisch Gladbach, Germany), and subjected to one cycle of ‘37C_m_LPDK_1’ program. Upon completion, the cell suspension was centrifuged at 1000 rpm for 5 min; the supernatant was removed and the pellet was resuspended in 2 mL of Hanks Balanced Salts Solution (HBSS). […] The proliferation of the 3D tissue was estimated through calculation of population doubling based on the dissociated cell number at the day 1, 6 and 11 after tissue revival. The cells were then (1) fixed for micronuclei scoring or (2) processed for subsequent experimentation.
Tissues were exposed to test substances, harvested and dissociated into single cell suspension as described above. Cell suspension samples were divided equally; half of the cell suspension sample was fixed in Carnoy’s solution with 3 fixation steps in methanol/acetic acid […], supplemented with formaldehyde at 1st fixation. The cell suspension was aged at least overnight at 4 °C to improve the quality of fixed cells. The remaining cells were incubated with 4% formaldehyde for 15 min, rinsed twice with 1 × PBS and stored in 4 °C. […] One thousand total cells were scored per microtissue to determine the frequency of MN and cytome. The percentage of MN and cytome at each concentration of test chemical was compared with the solvent control. The results were generated from three independent experiments. Each experiment consisted of a single microtissue per dose.

3D EpiIntestinal™ tissue [2] = details: human, 10 days
Method: as §1
as §2, with “revival.” for “revival. The cells were then (1) fixed for micronuclei scoring or (2) processed for subsequent experimentation.”

TK6 cells [3] = details: 24 h-exposure, dose not printed (Fig. 6b)
3D EpiIntestinal™ tissue [4] = test: Cytokinesis-blocked micronucleus analysis (CBMN) in EpiIntestinal™ tissue; assay type: cell-based, human; details: 6 μg/ml, apical and basolateral, 10 days
Method: The CBMN assay was conducted according to a previously published procedure (Fenech and Morley [1985b]). Briefly, cytochalasin B (5474, Tocris Bioscience, Bristol, UK, 6 μg/ml) was applied to the 3D EpiIntestinal™ in vitro tissues every other day, to the apical and to the basolateral compartments. […] The cell suspension was stored in fixative at 4 °C overnight, stained with acridine orange (1:100 dilution in 1 × PBS, A1301, Invitrogen; Thermo Fisher Scientific, Waltham, MA) and scored under fluorescence microscopy (Zeiss Axioimager, equipped with triple band excitation fluorescence filter set: DAPI, FITC and Texas red). Scoring was performed following the criteria developed by Fenech et al. (Fenech et al. [2003], [2007]). One thousand total cells per microtissue were scored to determine the percentage of cells with one (mononucleated) or two nuclei (binucleated). The results were generated from three independent experiments. Each experiment consisted of a single microtissue per dose.

TK6 cells [5] = details: 24 h, comparable across all concentrations tested; DMSO control 0.7%
[6] = 50 ng/ml, apical, 10 days, Carnoy's fixative, mean ± SE
[7] = 250 ng/ml, apical, 10 days, Carnoy's fixative, mean ± SE
[8] = 500 ng/ml, apical, 10 days, Carnoy's fixative, mean ± SE

For `CC[C@]1(O)C[C@@H]2CN(CCc3c([nH]c4ccccc34)[C@@](C(=O)OC)(c3cc4c(cc3OC)N(C)[C@H]3[C@@](O)(C(=O)OC)[C@H](OC(C)=O)[C@]5(CC)C=CCN6CC[C@]43[C@@H]65)C2)C1` [vinblastine sulphate], the “BN, binucleated cells” value (3D EpiIntestinal™ tissue [1]; [6]) was 0.77 ± 0.12%, the “Buds, nuclear buds” value (3D EpiIntestinal™ tissue [1]; [6]) was 0.63 ± 0.29% and the “CC, condensed chromatin” value (3D EpiIntestinal™ tissue [1]; [6]) was 0.07 ± 0.03%. For the same molecule, the “KL, karyolysis” value (3D EpiIntestinal™ tissue [1]; [6]) was 1.23 ± 0.74%, the “KR, karyorrhexis” value (3D EpiIntestinal™ tissue [1]; [6]) was 4.90 ± 0.63% and the “MN, micronuclei” value (3D EpiIntestinal™ tissue [1]; [6]) was 2.71 ± 0.44%. For the same molecule, the “Mono, mononucleated cells (basal and differentiated)” value (from here on “Mono … (basal and differentiated)”) (3D EpiIntestinal™ tissue [1]; [6]) was 89.09 ± 1.25%, the “PY, pyknosis” value (3D EpiIntestinal™ tissue [1]; [6]) was 0.6 ± 0.12% and the “BN, binucleated cells” value (3D EpiIntestinal™ tissue [1]; [7]) was 0.86 ± 0.38%. For the same molecule, the “Buds, nuclear buds” value (3D EpiIntestinal™ tissue [1]; [7]) was 0.53 ± 0.28%, the “CC, condensed chromatin” value (3D EpiIntestinal™ tissue [1]; [7]) was 0.15 ± 0.13% and the “KL, karyolysis” value (3D EpiIntestinal™ tissue [1]; [7]) was 1.82 ± 1.01%. For the same molecule, the “KR, karyorrhexis” value (3D EpiIntestinal™ tissue [1]; [7]) was 4.75 ± 1.30%, the “MN, micronuclei” value (3D EpiIntestinal™ tissue [1]; [7]) was 3.11 ± 0.36 % and the “Mono … (basal and differentiated)” value (3D EpiIntestinal™ tissue [1]; [7]) was 87.14 ± 2.07%. The “PY, pyknosis” value (3D EpiIntestinal™ tissue [1]; [7]) was 1.66 ± 0.49%, the “BN, binucleated cells” value (3D EpiIntestinal™ tissue [1]; [8]) was 0.94 ± 0.49% and the “Buds, nuclear buds” value (3D EpiIntestinal™ tissue [1]; [8]) was 0.50 ± 0.16%. The “CC, condensed chromatin” value (3D EpiIntestinal™ tissue [1]; [8]) was 0.17 ± 0.02 %, the “KL, karyolysis” value (3D EpiIntestinal™ tissue [1]; [8]) was 1.79 ± 1.05% and the “KR, karyorrhexis” value (3D EpiIntestinal™ tissue [1]; [8]) was 6.48 ± 2.52%. For the same molecule, the “MN, micronuclei” value (3D EpiIntestinal™ tissue [1]; [8]) was 3.46 ± 0.16 %, the “Mono … (basal and differentiated)” value (3D EpiIntestinal™ tissue [1]; [8]) was 84.89 ± 3.06% and the “PY, pyknosis” value (3D EpiIntestinal™ tissue [1]; [8]) was 1.77 ± 0.77%. The “frequency of pyknotic and karyolytic cells” value (3D EpiIntestinal™ tissue [1]; apical, 10 days) was “increased” and the “doses with significant decreases in cell population” value (3D EpiIntestinal™ tissue [2]) was 500 ng/mL.

In the case of `CO[C@@]12[C@H](COC(N)=O)C3=C(C(=O)C(C)=C(N)C3=O)N1C[C@@H]1N[C@@H]12` [mitomycin C], the population decline (TK6 cells [3]) is reported as 55%.

For `C=C1[C@@H](C)[C@H]2[C@H](Cc3ccccc3)NC(=O)[C@]23OC(=O)/C=C/[C@H](O)CCC[C@@H](C)C/C=C/[C@H]3[C@@H]1O` [Cyt-B, cytochalasin B], the “cells containing BN (binucleated)” value (3D EpiIntestinal™ tissue [4]) was 8.1% and ~ 8.1% and the mononuclear cells (3D EpiIntestinal™ tissue [4]) was 91.9%.

For `c1ccc2c(c1)cc1ccc3cccc4ccc2c1c34` [benzo(a)pyrene], the “BN, binucleated cells” value (3D EpiIntestinal™ tissue [1]; human, 10 days, 6.25 μg/ml) was 1.30 ± 0.12%, the “CC, condensed chromatin” value (3D EpiIntestinal™ tissue [1]; human, 10 days, 6.25 μg/ml) was 0.13 ± 0.03% and the “KL, karyolysis” value (3D EpiIntestinal™ tissue [1]; human, 10 days, 6.25 μg/ml) was 0.60 ± 0.25%. The “KR, karyorrhexis” value (3D EpiIntestinal™ tissue [1]; human, 10 days, 6.25 μg/ml) was 5.59 ± 0.41 %, the “Mono … (basal and differentiated)” value (3D EpiIntestinal™ tissue [1]; human, 10 days, 6.25 μg/ml) was 89.96 ± 0.56% and the “PY, pyknosis” value (3D EpiIntestinal™ tissue [1]; human, 10 days, 6.25 μg/ml) was 0.23 ± 0.03%. The “BN, binucleated cells” value (3D EpiIntestinal™ tissue [1]; human, 10 days, 12.5 μg/ml) was 1.80 ± 0.38%, the “CC, condensed chromatin” value (3D EpiIntestinal™ tissue [1]; human, 10 days, 12.5 μg/ml) was 0.37 ± 0.22% and the “KL, karyolysis” value (3D EpiIntestinal™ tissue [1]; human, 10 days, 12.5 μg/ml) was 0.63 ± 0.23%. For the same molecule, the “KR, karyorrhexis” value (3D EpiIntestinal™ tissue [1]; human, 10 days, 12.5 μg/ml) was 7.27 ± 1.07%, the “Mono … (basal and differentiated)” value (3D EpiIntestinal™ tissue [1]; human, 10 days, 12.5 μg/ml) was 85.87 ± 1.30% and the “PY, pyknosis” value (3D EpiIntestinal™ tissue [1]; human, 10 days, 12.5 μg/ml) was 0.40 ± 0.21%. The “BN, binucleated cells” value (3D EpiIntestinal™ tissue [1]; human, 10 days, 25 μg/ml) was 0.99 ± 0.29%, the “CC, condensed chromatin” value (3D EpiIntestinal™ tissue [1]; human, 10 days, 25 μg/ml) was 0.20 ± 0.10% and the “KL, karyolysis” value (3D EpiIntestinal™ tissue [1]; human, 10 days, 25 μg/ml) was 0.40 ± 0.20%. For the same molecule, the “KR, karyorrhexis” value (3D EpiIntestinal™ tissue [1]; human, 10 days, 25 μg/ml) was 6.24 ± 0.06 %, the “Mono … (basal and differentiated)” value (3D EpiIntestinal™ tissue [1]; human, 10 days, 25 μg/ml) was 88.11 ± 1.01% and the “PY, pyknosis” value (3D EpiIntestinal™ tissue [1]; human, 10 days, 25 μg/ml) was 0.56 ± 0.33%. For the same molecule, the “doses with significant decreases in cell population” value (3D EpiIntestinal™ tissue [2]) was no less than 6250 ng/mL.

With `[H]/N=C(/N)N/C(=N/[H])NCCc1ccccc1` [phenformin HCl, Phenformin HCl] the RICyt assay outcome (3D EpiIntestinal™ tissue [1]) was “inactive”, the “prevalence of MN” value (3D EpiIntestinal™ tissue [1]; 10 days' exposure, DMSO control […]) was ~ 1% and the “loss of viable cell populations” value (3D EpiIntestinal™ tissue [2]; 62.5 µg/ml) was 40%. For the same molecule, the “loss of viable cell populations” value (3D EpiIntestinal™ tissue [2]; 125 µg/ml) was 45%, the “loss of viable cell populations” value (3D EpiIntestinal™ tissue [2]; 250 µg/ml) was 60% and the “prevalence of MN in TK6 cells” value (TK6 cells [5]) was ~ 0.6%.
